Assay: Terpene concentration (HPLC, GC-FID)
Assay type: physicochemical
Conditions: terpene content of hemp distillate + alpha-pinene lipid nanoparticle formulation (Example 34), diluted to theoretical 12 mg/mL CBD
Protocol: A 5 Liter manufacturing batch was analyzed by high pressure liquid chromatography (HPLC) to measure Terpenes present in the sample.
When all ingredients were dissolved, the solvent was removed to form a dried composition. The resulting particle size and zeta potential were determined using a Malvern ZetaSizer and cannabinoid concentrations were determined by UPLC. Terpene concentrations were determined by GC-FID.

| SMILES | Measured Concentration (mg/g) of terpene | Measured Concentration (w/w %) of terpene |
| --- | --- | --- |
| C/C1=C\CC/C(C)=C/CC(C)(C)/C=C/C1 [Humulene] | <LOQ | <LOQ |
| C=CC(C)(O)CC/C=C(\C)CCC=C(C)C (stereo not drawn) [trans-Nerolidol] | <LOQ | <LOQ |
| CC1=CCC2C(C1)C2(C)C (centres unmarked) [Carene] | <LOQ | <LOQ |
| C=C1CC/C=C(\C)CC[C@@H]2[C@@H]1CC2(C)C [Beta-Caryophyllene] | 0.026 mg/g | 0.003% |
| CC(C)=CCC[C@](C)(O)[C@@H]1CC=C(C)CC1 [alpha-Bisabolol] | 0.062 mg/g | 0.006% |
| C=C/C(C)=C/CC=C(C)C [e-Ocimene] | <LOQ | <LOQ |
| CC12CCC(CC1)C(C)(C)O2 [Eucalyptol] | <LOQ | <LOQ |
| C=C1C2CCC(C2)C1(C)C (centres unmarked) [Camphene] | 0.046 mg/g | 0.005% |
| C=CC(C)(O)CC/C=C(/C)CCC=C(C)C (stereo not drawn) [cis-Nerolidol] | <LOQ | <LOQ |
| C=C/C(C)=C\CC=C(C)C [z-Ocimene] | <LOQ | <LOQ |
| C=C1CC[C@H]2O[C@]2(C)CC[C@@H]2[C@@H]1CC2(C)C [Caryophyllene Oxide] | <LOQ | <LOQ |
| CC1=CCC(C(C)C)=CC1 [y-Terpinene] | <LOQ | <LOQ |
| CC(C)=CCC/C(C)=C/CO [Geraniol] | <LOQ | <LOQ |
| CC1=CCC(=C(C)C)CC1 [Terpinolene] | <LOQ | <LOQ |
| C=C(C)[C@@H]1CC[C@@H](C)C[C@H]1O [Isopulegol] | <LOQ | <LOQ |
| C[C@H]1CC[C@@H](C(C)(C)O)CC2=C1CC[C@@H]2C [alpha-Guaiol] | 0.023 mg/g | 0.002% |
| C=CC(C)(O)CCC=C(C)C (centres unmarked) [Linalool] | <LOQ | <LOQ |
| C=C(C)[C@H]1CC=C(C)CC1 [delta-Limonene] | <LOQ | <LOQ |
| C=CC(=C)CCC=C(C)C [beta-Myrecene] | <LOQ | <LOQ |
| Cc1ccc(C(C)C)cc1 [p-Cymene] | <LOQ | <LOQ |
| C=C1CCC2CC1C2(C)C (stereo not drawn) [beta-Pinene] | 0.026 mg/g | 0.003% |
| CC1=CCC2CC1C2(C)C (stereo not drawn) [alpha-Pinene] | 5.205 mg/g | 0.521% |

Reference: patent US20230210771A1, “COMPOSITIONS FOR THE DELIVERY OF THERAPEUTIC AGENTS AND METHODS OF USE AND MAKING THEREOF” (priority 2020, published 2023)
